Measured values published in PubChem BioAssay AID1963971 (Molecular Pharmacology Branch, DTP, NCI, 2024).

Test system: 953936-095-R-J2-PDC spheroids with HUVEC/MSC, viability
Experiment: Anticancer human tumor 953936-095-R-J2-PDC patient-derived cervical squamous cell carcinoma cell line growth inhibition [PI3K]
Conditions: for IC50: curve of first compound; for viability, T/C: stronger effect = lower value; active = viability on the fitted dose curve at most 10% of control; inactive = the rest
In short: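 Spheroid viability read-out. Co-cultures contained the tumor line plus HUVEC and human MSCs. Each agent was paired with a PI3K inhibitor (inavolisib, alpelisib, duvelisib, copanlisib) across half-log dilutions starting at clinical Cmax, or at 10 microM when Cmax was unknown.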

[1] = second compound 0.0316 µM, first compound 0.0316 µM
[2] = second compound 0.0316 µM, first compound 0.1 µM
[3] = second compound 0.0316 µM, first compound 0.316 µM
[4] = second compound 0.0316 µM, first compound 1 µM
[5] = second compound 0.0316 µM, first compound 3.16 µM
[6] = second compound 0.0316 µM, first compound 10 µM
[7] = second compound 0.1 µM, first compound 0.0316 µM
[8] = second compound 0.1 µM, first compound 0.1 µM
[9] = second compound 0.1 µM, first compound 0.316 µM
[10] = second compound 0.1 µM, first compound 1 µM
[11] = second compound 0.1 µM, first compound 3.16 µM
[12] = second compound 0.1 µM, first compound 10 µM
[13] = second compound 0.316 µM, first compound 0.0316 µM
[14] = second compound 0.316 µM, first compound 0.1 µM
[15] = second compound 0.316 µM, first compound 0.316 µM
[16] = second compound 0.316 µM, first compound 1 µM
[17] = second compound 0.316 µM, first compound 3.16 µM
[18] = second compound 0.316 µM, first compound 10 µM
[19] = second compound 1 µM, first compound 0.0316 µM
[20] = second compound 1 µM, first compound 0.1 µM
[21] = second compound 1 µM, first compound 0.316 µM
[22] = second compound 1 µM, first compound 1 µM
[23] = second compound 1 µM, first compound 3.16 µM
[24] = second compound 1 µM, first compound 10 µM
[25] = second compound 3.16 µM, first compound 0.0316 µM
[26] = second compound 3.16 µM, first compound 0.1 µM
[27] = second compound 3.16 µM, first compound 0.316 µM
[28] = second compound 3.16 µM, first compound 1 µM
[29] = second compound 3.16 µM, first compound 3.16 µM
[30] = second compound 3.16 µM, first compound 10 µM
[31] = second compound 10 µM, first compound 0.0316 µM
[32] = second compound 10 µM, first compound 0.1 µM
[33] = second compound 10 µM, first compound 0.316 µM
[34] = second compound 10 µM, first compound 1 µM
[35] = second compound 10 µM, first compound 3.16 µM
[36] = second compound 10 µM, first compound 10 µM
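Also: spheroids exposed to compounds for seven days before read-out.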

C=CC(=O)N1CCN(c2nc(=O)n(-c3c(C)ccnc3C(C)C)c3nc(-c4c(O)cccc4F)c(F)cc23)C(C)C1 (centres undefined) + CC(Nc1ncnc2nc[nH]c12)c1cc2cccc(Cl)c2c(=O)n1-c1ccccc1
inactive: viability, T/C [1] 92.8% | viability, T/C [2] 112% | viability, T/C [3] 121% | viability, T/C [4] 119% | viability, T/C [5] 118% | viability, T/C [6] 129% | viability, T/C [7] 104% | viability, T/C [8] 108% | viability, T/C [9] 110% | viability, T/C [10] 122% | viability, T/C [11] 132% | viability, T/C [12] 111% | viability, T/C [13] 94.2% | viability, T/C [14] 106% | viability, T/C [15] 111% | viability, T/C [16] 118% | viability, T/C [17] 113% | viability, T/C [18] 128% | viability, T/C [19] 91.1% | viability, T/C [20] 97.7% | viability, T/C [21] 99% | viability, T/C [22] 118% | viability, T/C [23] 110% | viability, T/C [24] 113% | viability, T/C [25] 85% | viability, T/C [26] 79.2% | viability, T/C [27] 79.7% | viability, T/C [28] 88.1% | viability, T/C [29] 107% | viability, T/C [30] 105% | viability, T/C [31] 63.7% | viability, T/C [32] 67% | viability, T/C [33] 62.3% | viability, T/C [34] 82.6% | viability, T/C [35] 85.3% | viability, T/C [36] 81%
> 10 µM: IC50 (second compound 0.0316 µM) | IC50 (second compound 0.1 µM) | IC50 (second compound 0.316 µM) | IC50 (second compound 1 µM) | IC50 (second compound 3.16 µM) | IC50 (second compound 10 µM)

CC(Cn1ccc(-c2ccc(C#N)c(Cl)c2)n1)NC(=O)c1cc(C(C)O)[nH]n1 (centres undefined) + CC(Nc1ncnc2nc[nH]c12)c1cc2cccc(Cl)c2c(=O)n1-c1ccccc1
> 10 µM: IC50 (second compound 0.0316 µM) | IC50 (second compound 0.1 µM) | IC50 (second compound 0.316 µM) | IC50 (second compound 1 µM) | IC50 (second compound 3.16 µM) | IC50 (second compound 10 µM)
inactive: viability, T/C [1] 97.5% | viability, T/C [2] 100% | viability, T/C [3] 101% | viability, T/C [4] 91.1% | viability, T/C [5] 108% | viability, T/C [6] 96% | viability, T/C [7] 98.4% | viability, T/C [8] 106% | viability, T/C [9] 93.6% | viability, T/C [10] 109% | viability, T/C [11] 101% | viability, T/C [12] 93.5% | viability, T/C [13] 107% | viability, T/C [14] 85.7% | viability, T/C [15] 90.8% | viability, T/C [16] 88.6% | viability, T/C [17] 92.8% | viability, T/C [18] 93.4% | viability, T/C [19] 98.2% | viability, T/C [20] 91.7% | viability, T/C [21] 91.7% | viability, T/C [22] 94.4% | viability, T/C [23] 97.7% | viability, T/C [24] 90.1% | viability, T/C [25] 83.7% | viability, T/C [26] 73.6% | viability, T/C [27] 72.2% | viability, T/C [28] 75.9% | viability, T/C [29] 79.9% | viability, T/C [30] 70.7% | viability, T/C [31] 55.7% | viability, T/C [32] 56% | viability, T/C [33] 62.8% | viability, T/C [34] 60.5% | viability, T/C [35] 59.3% | viability, T/C [36] 58.8%
